In patent US5326902A, “Oxyalkyne compounds, pharmaceutical compositions containing them and processes for preparing such compounds and compositions” (Gruenenthal GmbH, priority 1992, dated 1994):

Tests used:
5-lipoxygenase [1] = target: T1, 5-lipoxygenase (Rattus norvegicus, UniProt P12527); assay: Inhibition of 5-lipoxygenase in RBL-1-cells; assay type: cell-based; conditions: 20 μM [14C]-arachidonic acid, 20 μM calcium ionophore A 23 187, 10 minutes
T1 construct: endogenous in cells; host or cells: RBL-1 cells (rat basophilic leukemia)
T1 sequence (P12527 1-673): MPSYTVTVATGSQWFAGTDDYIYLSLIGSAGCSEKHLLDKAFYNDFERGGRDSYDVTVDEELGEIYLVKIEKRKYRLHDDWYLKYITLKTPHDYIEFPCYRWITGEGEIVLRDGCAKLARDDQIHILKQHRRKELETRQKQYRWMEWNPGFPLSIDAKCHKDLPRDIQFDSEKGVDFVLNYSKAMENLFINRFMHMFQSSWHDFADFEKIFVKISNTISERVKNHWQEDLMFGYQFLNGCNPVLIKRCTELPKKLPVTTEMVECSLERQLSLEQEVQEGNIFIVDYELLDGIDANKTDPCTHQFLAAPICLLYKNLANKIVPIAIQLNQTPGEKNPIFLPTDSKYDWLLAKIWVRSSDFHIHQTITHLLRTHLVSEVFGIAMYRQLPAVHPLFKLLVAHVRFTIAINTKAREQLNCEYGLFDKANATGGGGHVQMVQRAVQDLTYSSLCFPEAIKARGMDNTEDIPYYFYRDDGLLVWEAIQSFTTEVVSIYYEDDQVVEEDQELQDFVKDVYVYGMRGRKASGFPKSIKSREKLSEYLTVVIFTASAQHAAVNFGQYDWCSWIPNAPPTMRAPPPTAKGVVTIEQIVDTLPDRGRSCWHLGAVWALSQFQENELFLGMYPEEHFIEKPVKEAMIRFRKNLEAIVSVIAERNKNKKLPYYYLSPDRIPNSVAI
Method: To determine the inhibition of 5-lipoxygenase, rat basophilic leukemia cells (RBL-1-cells) were cultured in vitro, harvested by centrifugation, washed with 50 mM potassium phosphate buffer of pH 7.4, and then suspended in this buffer at 1×10^7 cells/ml. Indomethacin (10 μM) and calcium chloride (2 mM) were added to 1 ml portions of this suspension, and then the mixture was incubated either in the presence of a compound according to the invention in a concentration range of from 0,1 μM to 100 μM or in the presence of a solvent (ethanol and/or dimethyl sulfoxide) for 3 minutes and thereafter with 20 μM of [^14 C]-arachidonic acid and 20 μM of calcium ionophore A 23 187 for 10 minutes. The reaction was stopped by adding 20 μl of glacial acetic acid, and then the mixture was extracted with ethyl acetate to isolate the metabolites of arachidonic acid formed by the enzymatic action of 5-lipoxygenase. These were separated by thin layer chromatography using a solvent mixture known to be suitable for lipoxygenase products [c.f. Jakschik et al., Biochem. Biophys. Res. Commun. 102, 624 (1981)].
The distribution of radioactivity among the different metabolites of arachidonic acid was measured using a TLC Linear Analyzer. By correlating the percentage amounts of the products formed under the action of 5-lipoxygenase (5HETE, isomers of LTB4) in the absence as well as in the presence of different concentrations of compounds according to the invention, the IC50 -values, i.e. the concentrations which cause a 50% inhibition of 5-lipoxygenase, were determined graphically from semilogarithmic plots.

[2] = tested on: bronchoconstriction elicited by ovalbumin; assay: Allergen-induced bronchoconstriction in guinea pigs (Konzett-Rossler); assay type: in vivo, guinea pig; conditions: Cavia porcellus, 1 h; oral, 60 minutes before ovalbumin (0.2 mg/kg intravenous); passively sensitized guinea pigs; read-out: ED40-Value (40% average inhibition of the bronchoconstriction elicited by ovalbumin)
Method: The anti-asthmatic effect of compounds according to the invention was tested in anesthetized and ventilated guinea pigs. To induce an asthmatic reaction, the animals were passively sensitized by a single intraperitoneal injection of anti-ovalbumin serum. After 48 hours, the asthmatic reaction was elicited by intravenous challenge with 0.2 mg/kg of ovalbumin. The immediately resulting bronchoconstriction was measured as an increase in intratracheal pressure. Effects caused by histamine, serotonin and sympathic counterreaction were eliminated by intravenous pretreatment with 2.15 mg/kg of mepyramine, 46.4 μg/kg of propranolol, 4.64 mg/kg of atropine and 1 mg/kg of methysergide, all administered 5 minutes before challenge. Compounds according to the invention were administered orally 60 minutes before the administration of ovalbumin. The following […] for the inhibition of the bronchoconstriction elicited by ovalbumin, i.e. the effective doses causing a 40% average inhibition of the bronchoconstriction, were determined: […]

5-lipoxygenase [3] = target: T1, 5-lipoxygenase; assay: Inhibition of Cell-free 5-lipoxygenase from RBL-1-cells (polarographic, 10,000 × g supernatant); assay type: biochemical; conditions: 10,000 × g supernatant of homogenized RBL-1-cells; arachidonic acid 75 μM; 35° C.; calculated IC50
Method: Cell-free 5-lipoxygenase was polarographically measured from 10,000 × g supernatant of homogenized rat basophilic leucemia cells (M. Haurand & L. Flohe in Biol. Chem. Hoppe-Seyler 369, 133 to 142 (1988)). After preincubation of the 10,000 × g supernatant with arachidonic acid (75 μM), ATP (adenosine triphosphate; 4 mM), reduced glutathione (4 mM), and either a compound according to the invention (0.1 to 100 μM) or a solvent (ethanol and/or dimethyl sulfoxide) at 35° C. for 5 minutes, the lipoxygenase reaction was initiated by addition of calcium chloride (3 mM) and simultaneously recorded.
The activity of 5-lipoxygenase was determined from the difference in the pO2 -decrease before and after addition of calcium chloride. The evaluation included the initial rate of the reaction after the lag-phase as well as the duration of the lag-phase. In the concentration range of from 3 to 50 μM, the test substances induced lag-phases between 20 and 60 seconds.

5-lipoxygenase [4] = assay: Inhibition of 5-lipoxygenase in Rat Blood After Oral Administration (ex vivo iLTB4-formation); conditions: male Wistar rats, one hour after administration
Method: The bioavailability of the compounds of formula I as 5-lipoxygenase inhibitors was characterized by means of an ex vivo biochemical assay method described by Tateson et al. in Brit. J. Pharmacol. 94, 528 (1988): A compound of formula I was orally administered to male rats (Wistar strain) at a dose of 21.5 mg/kg. After lethal CO2 -narcosis one hour after administration, the rats were bled by heart puncture with added heparin as an anticoagulant. Aliquots of the whole blood were incubated at 37° C. for 30 minutes in a water bath with calcium ionophore A 23 187 at an end concentration of 15 μg/ml. At the end of the incubation, the samples were centrifuged, and the concentration of the immunoreactive LTB4 (iLTB4) in aliquots of cell-free plasma was determined by radioimmunoassay (3H-LTB4 -RIA, Amersham). To enable calculation of the inhibition in percent of ex vivo iLTB4 -formation in whole rat blood treated with a compound according to the invention, rats orally treated with an appropriate vehicle solution were included in all experiments, and aliquots of their blood were run in parallel and were processed in the same way as described. The average iLTB4 -content of the plasma of the vehicletreated rats served as a 100% value. The activity in percent of the ex vivo iLTB4 -formation after oral administration of a compound according to the invention was calculated by dividing the average value of the iLTB4 -contents in ng iLTB4 /ml of the group treated with a compound according to the invention by the average value of the iLTB4 -contents in ng iLTB4 /ml of the vehicle treated group and subsequent multiplication by a factor of 100. The respective inhibition in percent was calculated by subtracting the activity in percent from 100.

SMILES | IC50 (5-lipoxygenase [1]) | IC50 (5-lipoxygenase [3]) | further results
CC(=O)N(O)Cc1ccc(C(O)C#Cc2ccccc2)cc1 (single isomer, unassigned; (+)) [Example 2, (+)-N-Hydroxy-N-[4-[1-hydroxy-3-phenyl-prop-2-yn-1-yl]benzyl]acetamide] | 4 µM |  | 
CC(=O)N(O)Cc1ccc(C(O)C#Cc2ccccc2)cc1 (single isomer, unassigned; (-)) [Example 3, (-)-N-Hydroxy-N-[4-[1-hydroxy-3-phenyl-prop-2-yn-1-yl]benzyl]acetamide] | 5 µM |  | ED40 [2]: 9 mg/kg
CC(=O)OC(C#Cc1ccccc1)c1ccc(CN(O)C(C)=O)cc1 (centres unmarked) [Example 4, N-Hydroxy-N-[4-[1-acetoxy-3-phenyl-prop-2-yn-1-yl]benzyl]acetamide] | 4 µM | 9 µM | 
CCOC(C#Cc1ccccc1)c1ccc(CN(O)C(C)=O)cc1 (centres unmarked) [Example 5] | 4 µM | 5 µM | 
CC(=O)N(O)C(C)c1ccc(C(O)C#Cc2ccccc2)cc1 (centres unmarked) [Example 6, N-Hydroxy-N-[1-[4-(1-hydroxy-3-phenyl-prop-2-yn-1-yl)phenyl]ethyl]acetamide] |  | 8 µM | 
CC(=O)N(O)Cc1ccc(C(O)C#Cc2ccccc2Cl)cc1 (centres unmarked) [Example 9, N-Hydroxy-N-[4-[1-hydroxy-3-(2-chlorophenyl)prop-2-yn-1-yl]benzyl]acetamide] | 4 µM |  | 
CC(=O)N(O)Cc1ccc(C(O)C#Cc2cccc(Cl)c2)cc1 (centres unmarked) [Example 10, N-Hydroxy-N-[4-[1-hydroxy-3-(3-chlorophenyl)prop-2-yn-1-yl]benzyl]acetamide] | 4 µM |  | Inhibition [%] of ex vivo iLTB4-formation (5-lipoxygenase [4]; 21.5 mg/kg oral): 75%
CC(=O)N(O)Cc1ccc(C(O)C#Cc2ccc(Cl)cc2)cc1 (centres unmarked) [Example 11, N-Hydroxy-N-[4-[1-hydroxy-3-(4-chlorophenyl)prop-2-yn-1-yl]benzyl]acetamide] | 8 µM |  | Inhibition [%] of ex vivo iLTB4-formation (5-lipoxygenase [4]; dose 10 mg/kg, oral): 95%
COc1cccc(C#CC(O)c2ccc(CN(O)C(C)=O)cc2)c1 (centres unmarked) [Example 13, N-Hydroxy-N-[4-[1-hydroxy-3-(3-methoxyphenyl)prop-2-yn-1-yl]benzyl]acetamide] | 3 µM | 3 µM | 
CC(=O)N(O)Cc1ccc(C(O)C#Cc2cccc3ccccc23)cc1 (centres unmarked) [Example 15, N-Hydroxy-N-[4-[1-hydroxy-3-(1-naphthyl)prop-2-yn-1-yl]benzyl]acetamide] | 3 µM | 7 µM | Inhibition [%] of ex vivo iLTB4-formation (5-lipoxygenase [4]; 21.5 mg/kg oral): 71%
CC(=O)N(O)Cc1ccc(C(O)C#Cc2ccsc2)cc1 (centres unmarked) [Example 17, N-Hydroxy-N-[4-[1-hydroxy-3-(3-thienyl)prop-2-yn-1-yl]benzyl]acetamide] | 5 µM |  | Inhibition [%] of ex vivo iLTB4-formation (5-lipoxygenase [4]; 21.5 mg/kg oral): 77%
CC(=O)N(O)Cc1cccc(C(O)C#Cc2ccccc2)c1 (centres unmarked) [Example 19, N-Hydroxy-N-[3-[1-hydroxy-3-phenyl-prop-2-yn-1-yl]benzyl]acetamide] | 3 µM |  | 
CC(=O)N(O)Cc1cccc(C(O)C#Cc2ccsc2)c1 (centres unmarked) [Example 20, N-Hydroxy-N-[3-[1-hydroxy-3-(3-thienyl)prop-2-yn-1-yl]benzyl]acetamide] |  | 7 µM | 
NC(=O)N(O)Cc1ccc(C(O)C#Cc2ccccc2Cl)cc1 (centres unmarked) [Example 22, N-Hydroxy-N-[4-[1-hydroxy-3-(2-chlorophenyl)prop-2-yn-1-yl]benzyl]urea] | 4 µM | 8 µM | Inhibition [%] of ex vivo iLTB4-formation (5-lipoxygenase [4]; dose 10 mg/kg, oral): 83%
NC(=O)N(O)Cc1ccc(C(O)C#Cc2cccc(Cl)c2)cc1 (centres unmarked) [Example 23, N-Hydroxy-N-[4-[1-hydroxy-3-(3-chlorophenyl)prop-2-yn-1-yl]benzyl]urea] | 4 µM |  | ED40 [2]: 18 mg/kg
NC(=O)N(O)Cc1ccc(C(O)C#Cc2ccc(Cl)cc2)cc1 (centres unmarked) [Example 24, N-Hydroxy-N-[4-[1-hydroxy-3-(4-chlorophenyl)prop-2-yn-1-yl]benzyl]urea] | 3 µM |  | 
COc1cccc(C#CC(O)c2ccc(CN(O)C(N)=O)cc2)c1 (centres unmarked) [Example 26, N-Hydroxy-N-[4-[1-hydroxy-3-(3-methoxyphenyl)prop-2-yn-1-yl]benzyl]urea] | 4 µM |  | ED40 [2]: 17 mg/kg
NC(=O)N(O)Cc1ccc(C(O)C#Cc2cccs2)cc1 (centres unmarked) [Example 27, N-Hydroxy-N-[4-[1-hydroxy-3-(2-thienyl)prop-2-yn-1-yl]benzyl]urea] | 3 µM |  | 
NC(=O)N(O)Cc1ccc(C(O)C#Cc2ccsc2)cc1 (centres unmarked) [Example 28, N-Hydroxy-N-[4-[1-hydroxy-3-(3-thienyl)prop-2-yn-1-yl]benzyl]urea] | 4 µM |  | ED40 [2]: 17 mg/kg
NC(=O)N(O)Cc1cccc(C(O)C#Cc2ccccc2)c1 (centres unmarked) [Example 29, N-Hydroxy-N-[3-[1-hydroxy-3-phenyl-prop-2-yn-1-yl]benzyl]urea] | 4 µM |  | 
CCOC(C#Cc1ccc(OC)c(OC)c1)c1ccc(CN(O)C(C)=O)cc1 (centres unmarked) [Example 33, N-Hydroxy-N-[4-[1-ethoxy-3-(3,4-dimethoxyphenyl)prop-2-yn-1-yl]benzyl]acetamide] | 5 µM | 6 µM | 
CCOC(C#Cc1cccs1)c1ccc(CN(O)C(N)=O)cc1 (centres unmarked) [Example 35, N-Hydroxy-N-[4-[1-ethoxy-3-(2-thienyl)prop-2yn-1-yl]benzyl]urea] | 3 µM | 5 µM | 
